Experimental data as given in ChEMBL document CHEMBL1201862, “PubChem BioAssay data set” (2004).
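Dose response: 5 concentrations. Exposure: 48 h. Format: 96-well plates. Endpoint: linear interpolation; highest concentration if not reached. GI50 = concentration required for 50% inhibition of growth.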 Activity calls are given as the source filed them. No stated cut-off is given here; in the data, active = GI50 up to about 1.1 µM and inactive = higher.

Columns and labels:
Assay in all cases: growth of human tumour cells (NCI), 48 h
SK-MEL-2 = system: SK-MEL-2
A549 = system: A549
UACC-257 = system: UACC-257
DU-145 = system: DU-145
PC-3 = system: PC-3
SNB-75 = system: SNB-75
T47D = system: T47D
Hs-578T = system: Hs-578T
OVCAR-3 = system: OVCAR-3
LOX IMVI = system: LOX IMVI
SNB-19 = system: SNB-19
SN12C = system: SN12C
HL-60 = system: HL-60
MOLT-4 = system: MOLT-4
786-0 = system: 786-0
HCT-15 = system: HCT-15
SK-MEL-5 = system: SK-MEL-5
SK-OV-3 = system: SK-OV-3
IGROV-1 = system: IGROV-1
SR = system: SR

Structure (SMILES)	GI50 (SK-MEL-2)	GI50 (A549)	GI50 (UACC-257)	GI50 (DU-145)	GI50 (PC-3)	GI50 (SNB-75)	GI50 (T47D)	GI50 (Hs-578T)	GI50 (OVCAR-3)	GI50 (LOX IMVI)	GI50 (SNB-19)	GI50 (SN12C)	GI50 (HL-60)	GI50 (MOLT-4)	GI50 (786-0)	GI50 (HCT-15) [µM]	GI50 (SK-MEL-5)	GI50 (SK-OV-3)	GI50 (IGROV-1)	GI50 (SR)
O=C(O)CC1NCc2cc3ccccc3nc21 (stereo not given)	> 100 µM (inactive)	> 100 µM (inactive)	> 100 µM (inactive)	> 100 µM (inactive)	> 100 µM (inactive)	> 100 µM (inactive)	> 100 µM (inactive)	> 100 µM (inactive)	> 100 µM (inactive)	> 100 µM (inactive)	> 100 µM (inactive)	> 100 µM (inactive)	> 100 µM (inactive)	> 100 µM (inactive)	> 100 µM (inactive)	> 100	> 100 µM (inactive)	> 100 µM (inactive)	> 100 µM (inactive)	> 100 µM (inactive)
O=[N+]([O-])c1ccc2c(c1)N=C1OC(c3c[nH]c4ccc(COc5ccccc5)cc34)C(O)=C1N2 (stereo not given)	> 100 µM (inactive)	> 100 µM (inactive)	33.7 µM (inactive)	> 100 µM (inactive)	> 100 µM (inactive)	25.1 µM (inactive)	> 100 µM (inactive)	> 100 µM (inactive)	> 100 µM (inactive)	> 100 µM (inactive)	> 100 µM (inactive)	> 100 µM (inactive)	1.74 µM (inactive)	1.82 µM (inactive)	53.8 µM (inactive)	> 100	37.5 µM (inactive)	98.9 µM (inactive)	> 100 µM (inactive)	7.71 µM (inactive)
CC1=NN(c2nc(N)nc(/C(C#N)=C\c3cccc([N+](=O)[O-])c3)n2)C(C)(C)C1	16.4 µM (inactive)	12.3 µM (inactive)	20.7 µM (inactive)	12.7 µM (inactive)	11.5 µM (inactive)	6.68 µM (inactive)	11 µM (inactive)	18.5 µM (inactive)	6.76 µM (inactive)	7.13 µM (inactive)	10.8 µM (inactive)	25.2 µM (inactive)	0.205 µM (active)	34.6 µM (inactive)	6.58 µM (inactive)	13.2	20.5 µM (inactive)	11.9 µM (inactive)	5.05 µM (inactive)	30.1 µM (inactive)
CSCCC(N)C(=O)NCCNc1ccc(NCCNC(=O)C(N)CCSC)c2c1C(=O)c1ccccc1C2=O (stereo not given)	3.41 µM (inactive)	0.579 µM (active)	3.25 µM (inactive)	0.798 µM (active)	1.84 µM (inactive)	1.57 µM (inactive)	2.5 µM (inactive)	1.02 µM (active)	3.03 µM (inactive)	0.624 µM (active)	0.927 µM (active)	0.374 µM (active)	0.746 µM (active)	0.123 µM (active)	0.308 µM (active)	1.22	3.48 µM (inactive)	2.62 µM (inactive)	2.12 µM (inactive)	0.197 µM (active)
O=c1[nH]c2cc([N+](=O)[O-])c(N(CCO)CCO)c([N+](=O)[O-])c2[nH]1	37.6 µM (inactive)	35.2 µM (inactive)	27 µM (inactive)	39.4 µM (inactive)	44.4 µM (inactive)	23.6 µM (inactive)	19.5 µM (inactive)	53.2 µM (inactive)	16.9 µM (inactive)	37.5 µM (inactive)	39.8 µM (inactive)	34.8 µM (inactive)	28.2 µM (inactive)	24.5 µM (inactive)	35.4 µM (inactive)	31.3	17.5 µM (inactive)	27 µM (inactive)	65.5 µM (inactive)	24.1 µM (inactive)
COc1ccc2nc3cc(Cl)ccc3c(NCCCN(CCCl)CCCl)c2c1	0.14 µM (active)	< 0.0122 µM (active)	0.122 µM (active)	0.0121 µM (active)	< 0.01 µM (active)	0.177 µM (active)	< 0.01 µM (active)	0.0328 µM (active)	0.0432 µM (active)	0.0126 µM (active)	0.0225 µM (active)	0.014 µM (active)	< 0.01 µM (active)	< 0.01 µM (active)	0.0101 µM (active)	0.0253	0.034 µM (active)	0.0484 µM (active)	0.0324 µM (active)	< 0.01 µM (active)
